In US5723747A, “Wax esters in transformed plants” (Calgene, Inc., priority 1994, dated 1998):

How the values were obtained:
[1] = biological target: jojoba acyl-CoA reductase (Simmondsia chinensis, UniProt Q9XGY7, S459G); assay: biochemical; conditions: 0.3% w/v in the assay mixture
Procedure: […] The incubation mixture also contains 10% w/v glycerol, 1 mM DTT, and is buffered with 50 mM HEPES (4-[2-hydroxyethyl]-1-piperazineethane-sulfonic acid) (HEPES, here and as referred to hereafter is added from a 1M stock solution adjusted to pH 7.5).
[…] The assay is terminated by placing the assay tube on ice and immediately adding 0.25 ml isopropanol:acetic acid (5:1 v/v). Unlabeled wax esters (0.1 mg) and oleyl alcohol (0.1 mg) are added as carriers. The [^14 C] lipids are extracted by the scaled-down protocol of Hara and Radin (Anal. Biochem. (1978) 90:420). Six ml of hexane/isopropanol (3:2, v/v) is added to the terminated assay. The sample is vortexed, 2 ml of aqueous sodium sulphate solution (5.5% w/v) is added, and the sample is again vortexed.
The incubation mixture also contains 10% w/v glycerol, 1 mM DTT, and is buffered with 50 mM HEPES (4-[2-hydroxyethyl]-1-piperazineethane-sulfonic acid) (HEPES, here and as referred to hereafter is added from a 1M stock solution adjusted to pH 7.5). […]
[…] The assay is terminated by placing the assay tube on ice and immediately adding 0.25 ml isopropanol:acetic acid (4:1 v/v). Unlabeled wax esters (25 μg), oleyl alcohol (50 μg), and oleic acid (50 μg) are added as carriers. The [^14 C] lipids are extracted by the scaled-down protocol of Hara and Radin (Anal. Biochem. (1978) 90:420). Four ml of hexane/isopropanol (3:2, v/v) is added to the terminated assay. The sample is vortexed, 2 ml of aqueous sodium sulphate solution (6.7% w/v) is added, and the sample is again vortexed.
Following addition of the sodium sulphate and vortexing the sample, the upper organic phase is removed and the lower aqueous phase is washed with 4 ml hexane/isopropanol (7:2 v/v). The organic phases are pooled and evaporated to dryness under nitrogen. The lipid residue is resuspended in a small volume of heptane, and an aliquot is assayed for radioactivity by liquid scintillation counting. The remainder of the sample can be used either for TLC analysis of the labeled classes, or for derivatization to cleave the wax esters, and thereby give a measure of total alcohol produced.
For lipid class analysis the sample is applied to a silica TLC plate, and the plate is developed in hexane/diethyl ether/acetic acid (such as 80:20:1 or 70:30:1 v/v/v). The distribution of radioactivity between the lipid classes, largely wax esters (when ligase is present, as in the microsomal membrane preparation assay), free fatty acids, fatty alcohols, and polar lipids at the origin, is measured using an AMBIS radioanalytic imaging system (AMBIS Systems Inc., San Diego, Calif.). If necessary the individual lipid classes can be recovered from the TLC plate for further analysis.
Following addition of the sodium sulfate and vortexing the sample, a known percentage of the organic phase is removed and counted via liquid scintillation counting. This calculation is used to estimate the total counts in the organic phase.

[2] = biological target: T1, acyl CoA: alcohol acyl transferase (Simmondsia chinensis, UniProt Q9XGY6); assay: Acyl CoA: alcohol acyl transferase activity in the membrane preparation; type: biochemical, jojoba; conditions: 0.3% w/v in the assay mixture
T1 construct: activity which is also present in the membrane preparation; from tissue; host or cells: microsomal membrane preparation (jojoba embryos)
T1 sequence (Q9XGY6 1-352): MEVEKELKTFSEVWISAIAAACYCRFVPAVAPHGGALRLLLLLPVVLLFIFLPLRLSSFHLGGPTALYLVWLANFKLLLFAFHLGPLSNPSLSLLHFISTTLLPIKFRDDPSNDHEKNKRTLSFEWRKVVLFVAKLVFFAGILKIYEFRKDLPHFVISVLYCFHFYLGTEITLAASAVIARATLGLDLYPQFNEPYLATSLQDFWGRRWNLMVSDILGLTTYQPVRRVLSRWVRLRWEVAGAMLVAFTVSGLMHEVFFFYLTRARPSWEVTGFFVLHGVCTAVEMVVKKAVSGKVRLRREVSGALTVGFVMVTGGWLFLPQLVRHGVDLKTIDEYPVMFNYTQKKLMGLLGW
From the text: If it is desired to inhibit an acyl CoA: alcohol acyl transferase activity which is also present in the membrane preparation (and which consumes the product of the reductase reaction), 0.3% w/v CHAPS is included in the assay mixture.

Sequence of jojoba acyl-CoA reductase (Q9XGY7 whole entry S459G): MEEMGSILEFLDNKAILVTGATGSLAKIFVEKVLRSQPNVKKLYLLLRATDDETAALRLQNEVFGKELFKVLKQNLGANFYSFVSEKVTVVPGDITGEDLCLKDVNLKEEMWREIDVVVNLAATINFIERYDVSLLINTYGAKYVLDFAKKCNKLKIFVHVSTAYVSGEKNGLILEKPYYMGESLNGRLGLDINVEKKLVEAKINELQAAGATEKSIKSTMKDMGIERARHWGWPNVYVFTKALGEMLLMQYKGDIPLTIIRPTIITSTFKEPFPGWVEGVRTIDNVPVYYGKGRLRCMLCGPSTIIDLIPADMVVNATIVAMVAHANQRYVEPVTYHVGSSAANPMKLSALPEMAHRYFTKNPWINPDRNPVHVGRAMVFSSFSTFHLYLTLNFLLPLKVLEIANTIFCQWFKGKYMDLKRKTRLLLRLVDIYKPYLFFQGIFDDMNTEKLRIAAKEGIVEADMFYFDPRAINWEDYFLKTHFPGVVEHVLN

Compound: C[C@H](CCC(=O)NCCC[N+](C)(C)CCCS(=O)(=O)[O-])[C@H]1CC[C@H]2[C@@H]3[C@H](O)C[C@@H]4C[C@H](O)CC[C@]4(C)[C@H]3C[C@H](O)[C@]12C [CHAPS, 3-[(3-cholamidopropyl)-dimethyl-ammonio]-1-propanesulfonate]
- effect on the reductase enzyme (in words) [1]: minimal effect
- effect on the acyl transferase reaction (in words) [2]: completely inhibits
